Among the data in the SangsterLogP compilation are logP and logD values, retold here.

Experiment in the first series: not given
Conditions: not given
Broadly, the logP is the decadic logarithm of the partition coefficient of the neutral form, usually between octanol and water. The low end stands for lower lipophilicity, the high end for higher lipophilicity. The compound `CC(=O)OC(C(=O)NC12CC3CC(CC(C3)C1)C2)c1ccccc1` (stereo not given) came in with a logP of 3.21.

Compound `CC(=O)C(C(=O)ON=C(C)C12CC3CC(CC(C3)C1)C2)c1ccccc1` (stereo not given) had a logP of 4.64.

For the compound `CCC(=O)OC(C(=O)NC12CC3CC(CC(C3)C1)C2)c1ccccc1` (stereo not given), the logP was 3.72.

The compound `CC(=O)OC(C(=O)ON=C1C2CC3CC(C2)CC1C3)c1ccccc1` (stereo not given) gave a logP of 3.28.

Experiment in another series: not given
Conditions: not given
The source holds these as a separate data set.
Compound `O=C1C2C3CCC(C3)C2C(=O)N1CCCCN1CCN(c2ccc3ccccc3n2)CC1` (stereo not given) yielded a logP of 3.64.

Take `CC(C)C12CCC(C)(CC1)C1C(=O)N(CCCCN3CCN(c4ccc5ccccc5n4)CC3)C(=O)C12` (stereo not given): the logP worked out at 6.59.

For the compound `CC(C)C12C=CC(C)(CC1)C1C(=O)N(CCCCN3CCN(c4ccc5ccccc5n4)CC3)C(=O)C12` (stereo not given), the log partition coefficient (logP) turned out to be 6.3.

Consider `O=C1C2C3C=CC(CC3)C2C(=O)N1CCCCN1CCN(c2ccc3ccccc3n2)CC1` (stereo not given), for which the logP turned out to be 3.83.

Experiment in another series: not given
Conditions: not given
This is another data set of the same source.
In the case of `O=C(O)c1[nH]c2cc(Cl)cc(Cl)c2c1CN1CC(=O)N(c2ccc(OCCF)c(Cl)c2)C1=O`, the logP is 2.53.

For the compound `O=C(O)c1[nH]c2cc(Cl)cc(Cl)c2c1CN1CC(=O)N(c2ccc(OCCF)cc2)C1=O`, the logP came to 2.07.

`O=C(O)c1[nH]c2cc(Cl)cc(Cl)c2c1CN1CC(=O)N(c2ccccc2OCCF)C1=O` showed a logP of 1.51.

`COc1ccc(N2C(=O)CN(Cc3c(C(=O)O)[nH]c4cc(Cl)cc(Cl)c34)C2=O)cc1` gave a logP of 2.26.

Experiment in the next series: not given
Conditions: not given
This is another data set of the same source.
`CS(=O)(=O)c1ccc(OCC(=O)O)cc1` returned a logP of 0.06.

Regarding `Nc1nc[nH]n1`, the log partition coefficient (logP) is -0.87.

Compound `CCOC(=O)COc1cccc2ccccc12` displayed a logP of 2.9.

The next series can be described thus: method code SF-AS, from PMID: 5136171.
Conditions: not given
`CCOC(=O)c1cnc2cc(OCCOC)c(OC(C)C)cc2c1O`: the logP amounted to 1.86.

The compound `CCCCOc1cc2c(O)c(C(=O)OCC)cnc2cc1OCCOC` came in with a logP of 1.72.

For `CCCOc1cc2c(O)c(C(=O)OCC)cnc2cc1OCCOC`, the logP was found to be 1.7.

`CCOC(=O)c1cnc2cc(OCCOC)c(OCC(C)C)cc2c1O` came in with a logP of 1.84.

Experiment in the next series: not given
Conditions: not given
The source holds these as a separate data set.
Regarding `O=C1c2c(O)cccc2C(C(=O)C(c2ccccc2)c2ccccc2)c2cccc(O)c21`, the logP was determined as 4.6.

`O=C1c2c(O)cccc2C(C(=O)Cc2cccc3ccccc23)c2cccc(O)c21` registered a lipophilicity (logP) of 4.61.

The compound `O=C1c2c(O)cccc2C(C(=O)Cc2ccc3ccccc3c2)c2cccc(O)c21` came in with a logP of 4.71.

The compound `O=C1c2c(O)cccc2C(C(=O)CC2CCCCC2)c2cccc(O)c21` showed a logP of 4.97.

Experiment in another series: not given
Conditions: not given
The source holds these as a separate data set.
In the case of `CCCCCCCCCC(=O)OC1CC(n2cc(C=CBr)c(=O)[nH]c2=O)OC1COP1(=O)OCc2cccc(C)c2O1` (stereo not given), the logP turned out to be 2.8.

Take `CCCCCC(=O)OC1CC(n2cc(C=CBr)c(=O)[nH]c2=O)OC1COP1(=O)OCc2cccc(C)c2O1` (stereo not given): the logP is 2.6.

With `Cc1cccc2c1OP(=O)(OCC1OC(n3cc(C=CBr)c(=O)[nH]c3=O)CC1OC(=O)C(C)(C)C)OC2` (stereo not given), the logP worked out at 3.

`CCC(=O)OC1CC(n2cc(C=CBr)c(=O)[nH]c2=O)OC1COP1(=O)OCc2cccc(C)c2O1` (stereo not given): the logP came to 2.3.

Experiment in the next series: not given
Conditions: not given
The source holds these as a separate data set.
`O=C(Cc1cc(O)cc(=O)o1)c1ccccc1`: the logP is 0.43.

Regarding `Cc1c(O)cc(C(=O)Cc2ccccc2)oc1=O`, the logP came to 0.78.

As for `O=c1cc(O)cco1`, the logP is 0.5.

Experiment in the next series: not given
Conditions: not given
This is another data set of the same source.
On to `CCCC(c1c(O)c2ccccc2oc1=O)c1c(O)c2ccccc2oc1=O`, for which the logP stood at 2.31.

The compound `CC(c1c(O)c2ccccc2oc1=O)c1c(O)c2ccccc2oc1=O` showed a logP of 0.43.

Take `CCCCC(c1c(O)c2ccccc2oc1=O)c1c(O)c2ccccc2oc1=O`: the logP was determined as 2.69.

Compound `O=c1oc2ccccc2c(O)c1Cc1c(O)c2ccccc2oc1=O` returned a logP of 1.83.

Experiment in the next series: not given
Conditions: not given
This is another data set of the same source.
In the case of `COc1ccc(CNC(=O)c2cc(-c3cncc(Cl)c3)cnc2-c2ccccn2)nc1OC`, the logP came to 3.2.

With `Cn1c(CCC(=O)N2CCC[C@H]2C(=O)Nc2ccccc2-c2ccccc2)nc2ccccc21`, the logP worked out at 3.79.

Compound `COc1ccccc1C(=O)N1CCCN(c2nc3ccc(Cl)cc3s2)CC1` registered a logP of 4.98.

In the case of `COc1nc(C)ncc1OCC1(c2cccc(F)c2)CC1C(=O)Nc1ccc(F)cn1` (stereo not given), the log partition coefficient (logP) is 3.65.

Experiment in a further series: not given
Conditions: not given
The source holds these as a separate data set.
Compound `CC(C)Oc1ccccc1OC(=O)N(C)SN(C)C(=O)Oc1ccc2c(c1)OCO2` displayed a logP of 2.7.

`CCCCCCCCCCCCOC(=O)N(C)SN(C)C(=O)Oc1ccc2c(c1)OCO2` came in with a logP of 7.39.

`CCCCCCCCOC(=O)N(C)SN(C)C(=O)Oc1ccc2c(c1)OCO2`: the logP was determined as 4.67.

`CCCCCCCCCCCCCCCCOC(=O)N(C)SN(C)C(=O)Oc1ccc2c(c1)OCO2` came in with a logP of 10.5.

Experiment in a further series: not given
Conditions: not given
The source holds these as a separate data set.
On to `Cc1cc(C(=O)N2Cc3ccc(C(=O)N(CCO)CCO)n3Cc3ccccc32)ccc1-c1cc(F)ccc1C(F)(F)F`, for which the logP is 3.31.

On to `Cc1cc(C(=O)N2Cc3ccc(C(=O)NCCF)n3Cc3ccccc32)ccc1-c1ccccc1C(F)(F)F`, for which the lipophilicity (logP) came out at 4.18.

On to `Cc1cc(C(=O)N2Cc3ccc(C(=O)N(CCO)CCO)n3Cc3ccccc32)ccc1-c1ccccc1C(F)(F)F`, for which the logP is 3.21.

The compound `Cc1cc(C(=O)N2Cc3ccc(C(=O)N4CCOCC4)n3Cc3ccccc32)ccc1-c1ccccc1CCF` showed a logP of 4.08.

Experiment in the next series: not given
Conditions: not given
This is another data set of the same source.
For `CCOC(=O)C1=C(C)NC(C)=C(C(=O)OC)C1c1cccc([N+](=O)[O-])c1` (stereo not given), the logP amounted to 2.88.

Another series in a line: method code SF-AS, from DOI: 10.1007/bf01964075. To be noted: pH 2.1.
As usually defined, the logD is the decadic logarithm of the distribution of all forms, ionised or not, between an organic phase and buffer at a given pH. A higher logD goes with higher lipophilicity. `CNC(=O)[C@H](CC(C)C)NC(C)=O` gave a logD of 0.14.

Consider `CNC(=O)CNC(C)=O`, for which the logD was -1.56.

A short description of a further series: method code SF-AS, from DOI: 10.1248/cpb.26.2832.
Conditions: not given
In the case of `CC(=O)OCC(=O)[C@@]1(O)CC[C@H]2[C@@H]3CCC4=CC(=O)C=C[C@]4(C)[C@H]3[C@@H](O)C[C@@]21C`, the logP was 2.4.

In turn, `CC(=O)OCC(=O)[C@@]1(O)[C@H](OC(C)=O)C[C@H]2[C@@H]3CCC4=CC(=O)C=C[C@]4(C)[C@@]3(F)[C@@H](O)C[C@@]21C` came in with a logP of 1.92.

The compound `CCCCC(=O)OC1(C(=O)CO)C(C)CC2C3CCC4=CC(=O)C=CC4(C)C3(F)C(O)CC21C` (stereo not given) displayed a log partition coefficient (logP) of 3.49.

As to `CC(=O)OCC(=O)[C@@]1(O)CC[C@H]2[C@@H]3CCC4=CC(=O)CC[C@]4(C)[C@H]3C(=O)C[C@@]21C`, the logP stood at 2.1.

The next series can be described thus: method code SF-HPLC, from DOI: 10.1016/0378-5173(85)90011-0.
Conditions: not given
`CC(=O)n1ncc2c(=O)[nH]cnc21` came in with a lipophilicity (logP) of -0.35.

As to `CCC(=O)n1ncc2c(=O)[nH]cnc21`, the lipophilicity (logP) was found to be 0.3.

Staying with this series, now noted: pH 7.4.
Consider `O=c1[nH]cnc2[nH]ncc12`, for which the logD was -0.55.

Another series is described as follows: method code SF-HPLC, from DOI: 10.1016/0378-5173(92)90116-j. To be noted: pH 7.4.
Compound `CCC(C(=O)OCCCCCCCOC(=O)C(CC)C(CO)Cc1cncn1C)C(CO)Cc1cncn1C` (stereo not given) displayed a logD of 2.67.

`CCC(C(=O)OCc1ccc(COC(=O)C(CC)C(CO)Cc2cncn2C)cc1)C(CO)Cc1cncn1C` (stereo not given) had a logD of 2.18.

With `CCC(C(=O)OCc1ccccc1COC(=O)C(CC)C(CO)Cc1cncn1C)C(CO)Cc1cncn1C` (stereo not given), the logD was 2.03.

On to `CCC(C(=O)OCCCCCOC(=O)C(CC)C(CO)Cc1cncn1C)C(CO)Cc1cncn1C` (stereo not given), for which the logD was 1.57.

Another series is described as follows: method code SF-GLC, from DOI: 10.1021/jm00240a002, PMID: 1151965.
Conditions: not given
On to `FC(F)(F)C(F)(F)F`, for which the logP came out at 2.

The compound `COC(F)(F)C(Cl)Cl` gave a logP of 2.21.

`FC(F)(F)C(Cl)Br` (stereo not given) registered a lipophilicity (logP) of 2.3.

A short description of a further series: method code SF-AS, from DOI: 10.1002/jps.2600690614, PMID: 7205578.
Conditions: not given
`CN(C)CCN(Cc1cccs1)c1ccccn1` gave a logP of 2.87.

In turn, `CCN1CCN(CC)C1=S` yielded a logP of 1.13.

`S=C1NCCCN1`: the lipophilicity (logP) is -0.68.

A short description of the next series: method code SF-NMR, from DOI: 10.1002/jps.2600751016, PMID: 3795031.
Conditions: not given
For `CC(CO)CC(F)(F)F` (stereo not given), the logP stood at 1.39.

In turn, `CCC(O)CCC(F)(F)F` (stereo not given) came in with a logP of 1.7.

In turn, `CC(CCO)C(F)(F)F` (stereo not given) registered a logP of 1.37.

A further series is described as follows: method code SF, from DOI: 10.1016/0360-3016(92)90876-j, PMID: 1735696. To be noted: pH 7.4.
In turn, `O=C(Cn1ccnc1[N+](=O)[O-])NCCO` returned a logD of -1.32.

On to `CC(=O)O/N=C/Cn1ccnc1[N+](=O)[O-]`, for which the logD was -0.47.

In the case of `O=[N+]([O-])c1nccn1CC=NO`, the logD was -0.43.

The next series in a line: method code SF-GLC, from DOI: 10.1016/s0022-3565(25)30310-1, PMID: 1181405. The settings on record: pH 7.4.
As to `CNC(=O)Oc1cc(C)c(C)c(C)c1`, the logD was 2.66.

For the compound `CCCOC(=O)NC`, the logD is 0.95.

`CNC(=O)OC` had a logD of -0.06.
